{"source": "patent US20250221405A1", "about": "“ROOT NODULE FORMATION-PROMOTING COMPOSITION, AND ROOT HAIR FORMATION-PROMOTING COMPOSITION” (KANEKA CORPORATION, priority 2022, published 2025)", "key": {"soybeans (Fukuyutaka) [1]": {"test_system": "soybeans (Fukuyutaka)", "assay": "Experimental Example 3: seed coating with biosurfactant and/or KVP, number of root nodules", "format": "in vivo, soybean", "settings": "Table 3-1", "procedure": "A solution of SF, SL, or RL and/or KVP dissolved in water (a composition for promoting root nodule formation) as the following amount in each of the following treatments was prepared. The seeds of soybeans (Fukuyutaka) were coated using the solution in an amount of 800 μL/100 g seed to obtain coated seeds.\nA 9 cm poly pot was filled with culture soil and seeded with three coated seeds in each pot.\nAfter seeding, the coated seeds were cultivated in a greenhouse set at 28° C. during the day (14h) and 18° C. at night (10h).\nSeven days after the seeding, the soybeans in each pot were thinned to one plant, and each pot was irrigated with 4.3 mL of a mixture of rhizobium materials (rhizobium and azospirillum) mixed with water at a proportion of 10 g/L.\n(§1) Twenty-one days after the irrigation, the roots were washed with water so as not to remove root nodules, the culture soil was removed, and then, the root nodules formed on the roots were collected.\n(§2) After the seeding, each pot was fertilized with ½ Hoagland solution (50 mL) once a week. In addition, experiments were conducted on eight pots (eight plants) in each treatment.\nA plurality of experiments were conducted by changing the type of the composition for promoting root nodule formation and the like. Tables 3-1 and 3-2 show the amounts of SF, SL, or RL and/or KVP in the composition for promoting root nodule formation and the investigation result of the number of root nodules. Note that the number of root nodules is indicated by a relative value with Tl taken as 100, with a numerical value in parentheses indicating the average number of root nodules actually measured (pieces/plant)."}, "soybeans (Fukuyutaka) [2]": {"test_system": "soybeans (Fukuyutaka)", "assay": "Experimental Example 4: soil irrigation with biosurfactant and/or KVP, root nodule number and weight, root weight", "format": "in vivo, soybean", "settings": "with rhizobium materials", "procedure": "(§3) For each of the following treatments, to a mixture of rhizobium materials (rhizobium and azospirillum) mixed with water at a proportion of 10 g/L, SF, SL, or RL was added in the following amount to prepare a solution comprising the rhizobium materials and SF, SL, or RL (a composition for promoting root nodule formation).\nA 9 cm poly pot was filled with sterilized fertilizer-free culture soil (Heiwa) and seeded three seeds of soybeans (Fukuyutaka) in each pot.\n(§4) After seeding, the seeds were cultivated in a greenhouse set at 28° C. during the day (14h) and 18° C. at night (10h).\n(§5) Seven days after the seeding, the soybeans in each pot were thinned to one plant, and each pot was irrigated with 4.3 ml of the composition for promoting root nodule formation (in the treatment T1, a mixture of rhizobium materials (rhizobium and azospirillum) mixed with water at a proportion of 10 g/L).\nas §1, §2\nA plurality of experiments were conducted by changing the type of the composition for promoting root nodule formation and the like. Tables 4-1 and 4-2 show the date of seeding, the date of irrigating, the date of investigating the number of root nodules, the composition for promoting root nodule formation, and the investigation result of the number of root nodules. Note that the number of root nodules is indicated by a relative value with Tl taken as 100, with a numerical value in parentheses indicating the average number of root nodules actually measured (pieces/plant). In addition, fresh root nodule weight means the weight of root nodules before drying on the day of collection and is indicated by a relative value with Tl taken as 100. Dried underground part weight means the weight of roots dried for 48 hours at 80° C. and indicated by a relative value with Tl taken as 100."}, "[3]": {"test_system": "Japanese mustard spinach (Haru no Senbatsu)", "assay": "Experimental Example 5: foliar application, microscopic observation of root hair", "format": "in vivo", "parameters": "key: those with a significant root hair increase observed were evaluated as AA; those with a root hair increase observed were evaluated as BB; those with no root hair increase observed were evaluated as CC; those with an overall or partial root hair decrease observed were evaluated as DD", "procedure": "An observation tank formed with ½ MS agar medium (0.8% agar) was prepared in an acrylic tank. Japanese mustard spinach (Haru no Senbatsu) was seeded near the surface of the observation tank. After seeding, the Japanese mustard spinach was cultivated in an incubator set in a light period (6:00-18:00, temperature 26° C., illuminance 120 μmol/m^2·s) and a dark period (18:00-6:00, temperature 18° C.). Twelve to fourteen days after the seeding, the following liquid (a composition for promoting root hair formation) was applied on the leaf surfaces of the plant body (foliar application) so as not to drip on the agar in each of the following treatments. […] A plurality of experiments were conducted by changing the date of seeding, the date of foliar application, the date of observation, and the type of the composition for promoting root hair formation and the like. Tables 5 to 9 show the composition for promoting root hair formation, the outline of operation and the observation results of root hair."}, "soybeans (Fukuyutaka) [4]": {"test_system": "soybeans (Fukuyutaka)", "assay": "Experimental Example 2: soil irrigation with composition comprising rhizobium materials, number of root nodules", "format": "in vivo, soybean", "procedure": "as §3, with “treatment,” for “treatments,”\nA 9 cm poly pot was filled with culture soil and seeded with three seeds of soybeans (Fukuyutaka) in each pot.\nas §4, §5, §1, §2\nA plurality of experiments were conducted by changing the type of the composition for promoting root nodule formation and the like. Tables 2-1 and 2-2 show the date of seeding, the date of irrigating, the date of investigating the number of root nodules, the composition for promoting root nodule formation, and the investigation result of the number of root nodules. Note that the number of root nodules is indicated by a relative value with T1 taken as 100, with a numerical value in parentheses indicating the average number of root nodules actually measured (pieces/plant)."}, "[5]": {"settings": "seed coating SF 0.5 g/t seed (diluted 16000 times)"}, "[6]": {"settings": "seed coating SF 5 g/t seed (diluted 1600 times)"}, "[7]": {"settings": "Table 4-1, single agent diluted 1000 times"}, "[8]": {"settings": "Table 4-1, single agent diluted 5000 times"}, "[9]": {"settings": "Table 4-1, single agent diluted 10000 times"}, "[10]": {"settings": "Table 2-1, irrigation 4.3 ml, diluted 100 times"}, "[11]": {"settings": "Table 2-1, irrigation, diluted 500 times"}, "[12]": {"settings": "Table 2-1, irrigation, diluted 1000 times"}}, "data": [{"substance": "surfactin Na [SF]", "values": [{"measurement": "Number of Root Nodules, average number actually measured", "setting": "soybeans (Fukuyutaka) [1]; [5]", "result": 25.3, "unit": "pieces/plant"}, {"measurement": "Number of Root Nodules, relative value with T1 taken as 100", "setting": "soybeans (Fukuyutaka) [1]; [5]", "result": 109}, {"measurement": "Number of Root Nodules, average number actually measured", "setting": "soybeans (Fukuyutaka) [1]; [6]", "result": 26.9, "unit": "pieces/plant"}, {"measurement": "Number of Root Nodules, relative value with T1 taken as 100", "setting": "soybeans (Fukuyutaka) [1]; [6]", "result": 116}, {"measurement": "Dried Underground Part Weight, relative value with T1 taken as 100", "setting": "soybeans (Fukuyutaka) [2]; [7]", "result": 101}, {"measurement": "Fresh Root Nodule Weight, relative value with T1 taken as 100", "setting": "soybeans (Fukuyutaka) [2]; [7]", "result": 124}, {"measurement": "Number of Root Nodules, average number actually measured", "setting": "soybeans (Fukuyutaka) [2]; [7]", "result": 19.6, "unit": "pieces/plant"}, {"measurement": "Number of Root Nodules, relative value with T1 taken as 100", "setting": "soybeans (Fukuyutaka) [2]; [7]", "result": 114}, {"measurement": "Dried Underground Part Weight, relative value with T1 taken as 100", "setting": "soybeans (Fukuyutaka) [2]; [8]", "result": 103}, {"measurement": "Fresh Root Nodule Weight, relative value with T1 taken as 100", "setting": "soybeans (Fukuyutaka) [2]; [8]", "result": 121}, {"measurement": "Number of Root Nodules, average number actually measured", "setting": "soybeans (Fukuyutaka) [2]; [8]", "result": 19.0, "unit": "pieces/plant"}, {"measurement": "Number of Root Nodules, relative value with T1 taken as 100", "setting": "soybeans (Fukuyutaka) [2]; [8]", "result": 110}, {"measurement": "Dried Underground Part Weight, relative value with T1 taken as 100", "setting": "soybeans (Fukuyutaka) [2]; [9]", "result": 99}, {"measurement": "Fresh Root Nodule Weight, relative value with T1 taken as 100", "setting": "soybeans (Fukuyutaka) [2]; [9]", "result": 107}, {"measurement": "Number of Root Nodules, average number actually measured", "setting": "soybeans (Fukuyutaka) [2]; [9]", "result": 18.0, "unit": "pieces/plant"}, {"measurement": "Number of Root Nodules, relative value with T1 taken as 100", "setting": "soybeans (Fukuyutaka) [2]; [9]", "result": 104}, {"measurement": "Observation Result (root hair)", "setting": "[3]; Table 5, aqueous solution diluted 1000 times, compared with T1", "result": "BB"}, {"measurement": "Observation Result (root hair)", "setting": "[3]; Table 5, aqueous solution diluted 2000 times", "result": "AA"}, {"measurement": "Observation Result (root hair)", "setting": "[3]; Table 5, aqueous solution diluted 5000 times", "result": "AA"}, {"measurement": "Number of Root Nodules, average number actually measured", "setting": "soybeans (Fukuyutaka) [4]; [10]", "result": 15.9, "unit": "pieces/plant"}, {"measurement": "Number of Root Nodules, relative value with T1 taken as 100", "setting": "soybeans (Fukuyutaka) [4]; [10]", "result": 109}, {"measurement": "Number of Root Nodules, average number actually measured", "setting": "soybeans (Fukuyutaka) [4]; [11]", "result": 16.3, "unit": "pieces/plant"}, {"measurement": "Number of Root Nodules, relative value with T1 taken as 100", "setting": "soybeans (Fukuyutaka) [4]; [11]", "result": 111}, {"measurement": "Number of Root Nodules, average number actually measured", "setting": "soybeans (Fukuyutaka) [4]; [12]", "result": 16.9, "unit": "pieces/plant"}, {"measurement": "Number of Root Nodules, relative value with T1 taken as 100", "setting": "soybeans (Fukuyutaka) [4]; [12]", "result": 115}]}]}
